One data set concerns MOLT-4. The experiment in a line: Western blot of HSP90, HSP70, CRT and HMGB1. It counts as cell-based, human. As to conditions: CC50 and CC100, 2h. Here is the method: (§1) 1×10^6 cells/mL were seeded in a serum-free culture medium and treated with PKHB1 (CC50 and CC100 for each cell line) or left alone (Control) for 2h. Supernatants was recovered and lysed with lysis buffer (20 mM Tris pH 6.8, 2 mM EDTA, 300 mM NaCl and SDS 2%). Protein concentration was measured using the DC Protein Assay kit (Bio-Rad, Hercules, Calif., USA) and 50 μg of protein were loaded into SDS-PAGE gels. After blotting, nitrocellulose filters were probed with primary antibodies (1:1000) against HMGB1 (HAP46.5: sc-56698), HSP70 (C92F3A-5: sc-66048), HSP90 (F-8: SC-13119) and Calreticulin (F-4: sc373863). Anti-mouse or anti-rabbit-HRP served as secondary antibodies (Santa Cruz Biotechnology, CA, USA). Visualization was performed with ECL substrate system (Thermo Scientific, Waltham, Mass., USA).

The subject of a further data set is CEM. The experiment in a line: Western blot of HSP90, HSP70, CRT and HMGB1. It counts as cell-based, human. To be noted: CC50 and CC100, 2h. As to the method: as §1
(In general: Immunoblotting shows a protein as a band on a membrane.)

Another data set has as its system L5178Y-R tumor. The experiment in a line: PKHB1 treatment of L5178Y-R tumor-bearing mice. It counts as in vivo, BALB/c mice. As to the method:
The heparinized blood acquired from mice, was assessed using the Automatic Hematology Analyzer KontroLab. Blood smears were performed and fixed with methanol, stained with Wright's, and observed under the microscope to perform differential blood white cells counts.
Six-to-eight-week-old BALB/c female mice were maintained in controlled environmental conditions (25° C. and 12h light/dark cycle) and were supplied with rodent food (Science diet) and water ad libitum. • Prophylactic vaccinations: L5178Y-R cells (1.5, 3, 5×10^6) were treated with 300 μM of PKHB1 (CC100) for 2h. Cell death was confirmed using trypan blue staining and flow cytometry. Treated cells were inoculated subcutaneously in 100 μl PBS into the left hind of the leg, whereas 2×10^6 untreated control cells were inoculated into the right hind 7 days later (42). • Tumor establishment and measurement: Tumor was established by the subcutaneous injection of 1×10^6 L5178Y-R cells in 100 μL PBS, into the left hind of the leg. Tumor volume and weight were measured three times per week using a caliper (Digimatic Caliper Mitutoyo Corporation, Japan) and a digital scale (American Weigh Scale-600-BLK, USA). When the tumor reached 100 mm^3 the first PKHB1 injection (200 μg) was applied (day 0). Tumor volume was determined with the formula: tumor volume (mm3)=[…]*A*B*C. Long-term memory assay: Mice in complete remission after PKHB1 treatment, were rechallenged with 2×10^6 cells in 100 μL of PBS, into the opposite limb, and tumor volume was measured like described above.
Tissues and organs were obtained and fixed in 10% neutral formalin, embedded in paraffin, sectioned (5 µm thickness) and stained with H&E (Sigma-Aldrich, St Louis, Mo., USA). Histopathological analysis was done by an external veterinarian pathologist (National professional certificate 2593012). Immunohistochemistry was done using the appropriate primary antibody (CD4/CD8) and adding the biotinylated secondary antibody. Finally, hematoxylin-counterstained slides are coverslipped using resin as mounting solution and observed under microscopy.

Data set [1] relates to L5178Y-R. The experiment in a line: Cell death by Annexin-V-APC/PI flow cytometry. In kind it is cell-based, murine. As to conditions: 2h; for cell death percentage: PKHB1 200 μM. As to the method: (§2) CEM, MOLT-4 (T-acute lymphoblastic leukemia, T-ALL), and L5178Y-R (murine lymphoblastic T cell line) were obtained from ATCC. Human and murine PBMCs, human CD4+ and CD8+ T cells, and primary lymphoid organ's cells were obtained from healthy individuals. Cells were maintained in RPMI-1640 medium supplemented with 10% of fetal bovine serum, 2 mM L-glutamine, 100 U/mL penicillin-streptomycin (GIBCO by Life Technologies, Grand Island, N.Y., USA), and incubated at 37° C. in a controlled humidified atmosphere with 5% CO2. Cell count was performed using trypan blue (0.4% Sigma-Aldrich), a Neubauer chamber and an optic microscope (Zeiss Primo Star) as proposed by the ATCC's standard protocols. Flow Cytometry. Cell Death Induction, and Inhibition Annexin-V-allophycocyanin (Ann-V-APC 0.1 μg/ml; BD Pharingen, San Jose Calif., USA), propidium iodide (PI, 0.5 μg/ml Sigma-Aldrich), and tetramethylrhodamine ethyl ester (TMRE, 20 nM, Sigma-Aldrich) were used for phosphatidylserine exposure, cell viability, and mitochondrial transmembrane potential (UΨm) quantification, respectively, in a BD AccuryC6 flow cytometer (BD Biosciences) (total population 10,000 cells). Data were analyzed using FlowJo software. 1×10^6 cells/mL were treated for 2h with PKHB1 (as indicated). For the inhibition assays, calcium chelator, BAPTA (5 mM, CalbioChem, Merck, Billerica Mass., USA); or the pancaspase inhibitor Q-VD-OPh (QVD, 10 μM, BioVision, Milpitas Calif., USA); were added 30 min before PKHB1.

Data set [2] can be described thus: Cell death by Annexin-V-APC/PI flow cytometry. In kind it is cell-based, murine. To be noted: L5178Y-R, 2h; read-out: cytotoxic concentration that induces around 50% of cell death (CC50). Here is the method: as §2
On the technique in general: Flow cytometry measures light scatter and fluorescence of single cells or particles in a stream.

For data set [3], the system named is L5178Y-R. The data set can be described thus: Western blot of HSP90, HSP70, CRT and HMGB1. To be noted: CC50 and CC100, 2h. In kind it is cell-based, murine. As to the method:
as §1

The test system of data set [4] is human PBMCs and CD4+ and CD8+ human T cells from healthy donors. The data set can be described thus: Selectivity on non-cancerous human cells (Annexin-V/PI). It counts as cell-based. Here is the method:
Peripheral blood was collected from 10 healthy volunteers after obtaining written informed consent. This study was approved by the Institutional Ethics Committee at the Universidad Autonoma de Nuevo Leon, College of Biological Sciences. The animal study was approved by the Animal Ethical Committee (CEIBA), Number: 01/2015. All experiments were conducted according to Mexican regulation NOM-062-ZOO-1999. The blood from sacrificed mice was obtained by cardiac puncture, while human blood was collected by venipuncture. Peripheral blood mononuclear cells (PBMCs) isolation was performed by density gradient centrifugation using Ficoll-Hypaque-1119 (Sigma-Aldrich, St Louis, Mo., USA). 4×10^5 white blood cells were washed and seeded. […]
CEM, MOLT-4 (T-acute lymphoblastic leukemia, T-ALL), and L5178Y-R (murine lymphoblastic T cell line) were obtained from ATCC. […] Cell Death Induction, and Inhibition Annexin-V-allophycocyanin (Ann-V-APC 0.1 μg/ml; BD Pharingen, San Jose Calif., USA), propidium iodide (PI, 0.5 μg/ml Sigma-Aldrich), and tetramethylrhodamine ethyl ester (TMRE, 20 nM, Sigma-Aldrich) were used for phosphatidylserine exposure, cell viability, and mitochondrial transmembrane potential (UΨm) quantification, respectively, in a BD AccuryC6 flow cytometer (BD Biosciences) (total population 10,000 cells). Data were analyzed using FlowJo software. […]

The mark [5] stands for this setting: PKHB1-treated vs untreated tumor-bearing mice, trypan blue count.

Structures are written as SMILES.

As for `CSCC[C@H](NC(=O)[C@@H](NC(=O)[C@@H](NC(=O)[C@H](Cc1ccc(O)cc1)NC(=O)[C@H](Cc1ccccc1)NC(=O)[C@H](CCCNC(=N)N)NC(=O)[C@H](N)CCCCN)C(C)C)C(C)C)C(=O)N[C@@H](Cc1c[nH]c2ccccc12)C(=O)N[C@@H](CCCCN)C(=O)N[C@H](CCCCN)C(=O)O` [PKHB1, (D)K-R-F-Y-V-V-M-W-K-(D)K], the “expression of HSP90, HSP70, CRT and HMGB1 in cellular lysates” value in the data set with MOLT-4, with CEM and in the data set with L5178Y-R [3] was “decrease” in each case. For the same molecule, the “expression of HSP90, HSP70, CRT and HMGB1 in supernatants” value in the data set with MOLT-4 (vs untreated cells), in the data set with CEM (vs untreated cells) and with L5178Y-R [3] (vs untreated cells) was “increased” each time. In addition, the “tumor histology (H&E), leukocyte infiltration” value in the data set with L5178Y-R tumor (200 μg PKHB1 intraperitoneally weekly, day 18) was “contained a mixture of lymphocytes and polymorphonuclear cells”. In addition, the tumor regression result in the data set with L5178Y-R tumor (200 μg PKHB1 intraperitoneally weekly, day 30) is “complete tumor regression in most of the mice”. Also, the “immunohistochemistry of tumor sections, CD4+ and CD8+ cells” value with L5178Y-R tumor (PKHB1-treated tumor-bearing mice) is “presence of CD4+ and CD8+ cells”. For the same molecule, the WBC differential result in the data set with L5178Y-R tumor (PKHB1-treated tumor-bearing mice vs healthy mice) is given as “no significant difference”. The “cell number of BM, spleen and thymus cells” value with L5178Y-R tumor (setting [5]) is recorded as “significant increase”. Moreover, the “cell number of lymph nodes” value in the data set with L5178Y-R tumor (setting [5]) is “significant decrease”. Further, the “cell death (Ann-V-APC/PI positive cells)” value in the data set with L5178Y-R [1] (100, 200 and 300 μM) is given as “concentration-dependent”. In the data set with L5178Y-R [1], this molecule registered a CC100 of 300 µM. Further, the cell death percentage in the data set on L5178Y-R [1] (left alone) is listed as 52%±5; in the data set with L5178Y-R [1] (pre-incubated 30 min with Ca2+ chelator BAPTA) it was 21%±8; with L5178Y-R [1] (pre-incubated 30 min with pan-caspase inhibitor Q-VD-OPH), 49%±3. Besides, in data set [2], the CC50 was 200 µM. Moreover, the “cell viability of non-cancerous cells” value in data set [4] is “did not significantly affected cell viability”.

For the origin of these results see US20220000967A1, “SYNTHETIC PEPTIDES INDUCING IMMUNOGENIC CELL DEATH” (SORBONNE UNIVERSITE, priority 2018, published 2022).
